# Laboratory results as given in patent US20220195386A1, “COMPOSITIONS AND METHODS FOR MAKING SENSORY NEURONS” (University of Georgia Research Foundation, Inc., priority 2020, published 2022).
# B1: NT-3: Neurotrophin-3, binds to TRKC; used to promote differentiation of proprioceptors (protein, UniProt P20783 139-257, looked up)
# Neurotrophin-3: YAEHKSHRGEYSVCDSESLWVTDKSSAIDIRGHQVTVLGEIKTGNSPVKQYFYETRCKEARPVKNGCRGIDDKHWNSQCKTSQTYVRALTSENNKLVGWRWIRIDTSCVCALSRKIGRT
# Test system: SNs differentiated from NCCs replated on day 12
# Test: SN subtype enrichment with growth factors, TRKA/TRKB/TRKC quantified by flow cytometry (FACS) on day 20
# Type: cell-based, human
# Details: NCCs replated day 12 in SN differentiation media containing GDNF and the indicated growth factor; FACS analysis on day 20; FIG. 7B
# Excerpt: FIGS. 7A-7G illustrates strategies for SN subtype enrichment (related to FIGS. 3A-3F). FIG. 7A is a schematic of an initial approach. On day 12 of differentiation, NCCs were replated using SN differentiation media containing GDNF and the indicated growth factors and analyzed by flow cytometry. FIG. 7B is a bar graph showing quantification of SNs differentiated using enrichment media as indicated on 7A. SNs were stained with TRKA, TRKB and TRKC antibodies and quantified by flow cytometry. DAPI was used as viability dye. FIGS. 7C-7F are a series of scatter plots showing identification (7C) of subpopulation of noci- (7D), mechano- (7E), and proprioceptor (7F) enrichment by flow cytometry. Side scatter and forward scatter showing gated areas where each subtype is enriched and the percentages of each subpopulation are shown. FIG. 7G is a bar graph showing NGN2 and NGN1 waves are present during SN differentiation. RNA from SN-biased NCCs was obtained on each indicated day and NGN1 and NGN2 expression was measured by RT-qPCR. In all experiments N>4. Graphs show mean±S.D.
# Cells were dissociated with Accutase for 20 min and then washed in Flow buffer: DMEM 2% FBS and 1 mM L-glutamine. Cells were centrifuged at 200 g for 4 min and resuspended in cold PBS, they were counted and diluted to a concentration of 1×10^6 cells/100 μL and incubated for 20 min (CD49d) or 1 h (TRKA, B and C) with conjugated antibody. Cells were then washed twice in Flow buffer, and incubated with DAPI (1:1,000) in 300 μL of Flow buffer for 5 mins. Cells were filtered and transferred to a 96-well plate. Samples were run using a Cytoflex S (Beckman). All subsequent analysis was done using FlowJo.
# Contrary to previous reports (Alshawaf, et al., Scientific Reports 8, 603 (2018), Chambers, et al., Nat. Biotechnol. 30, 715-720 (2012), Schrenk-Siemens, et al., Nat. Neurosci. 18, 10-550 16 (2015)), the investigated protocol generates all three SN subtypes (FIG. 1H, 1I). Thus, methods to enrich distinct SN subtypes from bulk cultures were investigated. […]
row,Molecule,"SN subtype enrichment (TRKA, TRKB, TRKC by FACS)"
1,"BDNF: Brain-derived neurotrophic factor, binds to TRKB; used to promote differentiation of mechanoreceptors",no subtype enrichment
2,"NGF: Nerve growth factor, binds to TRKA; used to promote differentiation of nociceptors",no subtype enrichment
3,B1,no subtype enrichment

# Test system: hESC-derived SNs
# Test: Multi-electrode array (MEA) recording of SN firing after incubation with nociceptor agonists
# Type: cell-based, human
# Details: titrated, incubated for 1 min before data acquisition; 5 min recordings; normalized to untreated control (basal); FIG. 2K
# Protocol: Experiments were performed using a Maestro Pro (Axion Biosystems) MEA system. CytoView MEA 96 plates containing 8 embedded electrodes/well were coated with PO/LM/FN 448 and seeded with NCCs (day 6 or 12) or SNs (day 30). Repeated recordings were made every 5 days at 37° C. with a sampling frequency of 12.5 kHz for 5 min. Recordings from at least 6 wells were averaged per reading. Bursts were detected using Inter-Spike Interval (ISI). Capsaicin, WIN 55,212 and Pregnenolone were titrated and incubated for 1 min before data acquisition. Hypoosomotic media was obtained by mixing Sensory neuron media with sterile water in a 45:55 ratio, treatment was done for 1 min.
row,Molecule,firing rate of SNs (MEA)
1,"Cc1c(C(=O)c2cccc3ccccc23)c2cccc3c2n1[C@H](CN1CCOCC1)CO3 [WIN 55, 212-2]",increased firing rate
2,CC(=O)[C@H]1CC[C@H]2[C@@H]3CC=C4C[C@@H](O)CC[C@]4(C)[C@H]3CC[C@]12C [pregnenolone],increased firing rate
3,COc1cc(CNC(=O)CCCC/C=C/C(C)C)ccc1O [capsaicin],increased firing rate
